Source: article PMC3792221 (Biomolecules & Therapeutics, 2012)

Legend:
[1] = biological target: T1, MAO-A (rat brain mitochondrial MAO) (Rattus norvegicus, UniProt P21396); assay: MAO-A inhibition assay in vitro; type: biochemical
T1 sequence (P21396 1-526): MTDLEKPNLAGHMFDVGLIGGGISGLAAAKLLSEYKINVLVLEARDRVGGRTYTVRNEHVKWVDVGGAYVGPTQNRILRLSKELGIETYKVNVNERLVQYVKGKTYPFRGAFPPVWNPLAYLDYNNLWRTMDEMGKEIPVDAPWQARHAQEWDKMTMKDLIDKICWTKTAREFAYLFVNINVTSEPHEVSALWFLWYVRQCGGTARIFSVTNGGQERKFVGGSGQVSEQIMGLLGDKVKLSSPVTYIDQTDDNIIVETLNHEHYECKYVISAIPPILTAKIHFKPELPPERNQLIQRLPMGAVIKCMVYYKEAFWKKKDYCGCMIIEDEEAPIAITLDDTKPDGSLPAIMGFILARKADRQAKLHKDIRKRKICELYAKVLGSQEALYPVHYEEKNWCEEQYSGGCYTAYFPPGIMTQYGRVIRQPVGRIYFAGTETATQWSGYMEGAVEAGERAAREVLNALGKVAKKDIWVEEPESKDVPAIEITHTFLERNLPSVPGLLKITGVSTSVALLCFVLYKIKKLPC

[2] = biological target: T2, MAO-B (rat liver mitochondrial MAO) (Rattus norvegicus, UniProt P19643); assay: MAO-B inhibition assay in vitro; type: biochemical
T2 sequence (P19643 1-520): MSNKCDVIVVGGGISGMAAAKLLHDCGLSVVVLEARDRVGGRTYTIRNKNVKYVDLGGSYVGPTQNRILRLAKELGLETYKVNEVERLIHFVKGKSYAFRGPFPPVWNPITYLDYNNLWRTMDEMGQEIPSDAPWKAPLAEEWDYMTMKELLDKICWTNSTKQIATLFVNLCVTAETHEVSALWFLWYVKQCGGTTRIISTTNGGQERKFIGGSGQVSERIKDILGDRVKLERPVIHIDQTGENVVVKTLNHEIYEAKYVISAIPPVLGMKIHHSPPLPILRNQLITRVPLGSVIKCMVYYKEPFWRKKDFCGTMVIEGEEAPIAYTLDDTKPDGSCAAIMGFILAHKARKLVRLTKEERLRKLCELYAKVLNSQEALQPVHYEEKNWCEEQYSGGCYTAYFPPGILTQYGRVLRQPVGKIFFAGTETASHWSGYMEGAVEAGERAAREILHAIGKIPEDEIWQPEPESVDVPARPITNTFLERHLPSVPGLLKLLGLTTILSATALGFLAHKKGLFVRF

[3] = biological target: T3, bovine adrenal DBH (Bos taurus, UniProt P15101); assay: DBH inhibition assay in vitro; type: biochemical
T3 sequence (P15101 1-610): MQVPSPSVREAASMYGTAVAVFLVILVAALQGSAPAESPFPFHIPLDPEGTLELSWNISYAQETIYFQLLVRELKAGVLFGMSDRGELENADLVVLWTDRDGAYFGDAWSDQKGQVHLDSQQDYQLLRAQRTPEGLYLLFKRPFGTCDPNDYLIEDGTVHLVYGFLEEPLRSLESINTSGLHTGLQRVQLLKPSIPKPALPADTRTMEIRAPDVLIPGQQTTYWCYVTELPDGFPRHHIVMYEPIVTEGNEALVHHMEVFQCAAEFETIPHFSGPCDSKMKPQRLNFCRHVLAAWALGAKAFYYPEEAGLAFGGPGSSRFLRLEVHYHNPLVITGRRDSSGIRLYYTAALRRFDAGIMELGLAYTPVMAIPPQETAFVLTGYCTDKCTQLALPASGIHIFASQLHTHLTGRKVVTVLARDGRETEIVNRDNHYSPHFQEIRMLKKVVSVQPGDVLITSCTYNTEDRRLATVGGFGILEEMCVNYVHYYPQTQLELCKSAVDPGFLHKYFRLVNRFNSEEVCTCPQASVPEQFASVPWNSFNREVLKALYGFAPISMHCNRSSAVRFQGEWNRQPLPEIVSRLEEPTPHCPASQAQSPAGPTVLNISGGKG

[4] = system: neural stem cells; details: ref Guan et al., 2009; cited from earlier work
[5] = isolated geniposide; ref Hou et al., 2008; Lu et al., 2011; cited from earlier work
[6] = IC50 value MAO-A, Table 1, 1 mM serotonin substrate
[7] = read-out: MAO-A inhibitory activity
[8] = read-out: MAO-B inhibitory activity
[9] = IC50 value DBH, Table 1, 120 mM tyramine substrate
[10] = read-out: DBH inhibitory activity

Row | IC50 [1, 6] [µM] | IC50 [2] [µM] | inhibition at 50 µg/mL [2, 8] [%] | inhibition at 100 µg/mL [2, 8] [%] | IC50 [3, 9] [µM] | inhibition at 50 µg/mL [3, 10] [%] | inhibition at 100 µg/mL [3, 10] [%] | Compound | other results
1 | 2410 | 300 | 50.4 ± 5.9 | 71.6 ± 9.3 | 334 | 49.2 ± 3.1 | 64.1 ± 6.8 | O=C(O)c1ccc(O)c(O)c1 [Compound 1, protocatechuic acid] | IC50 ([1]; IC50 MAO-A (abstract)): 2410 µM; inhibition at 50 µg/mL [1, 7]: 7.3 ± 2.6%; inhibition at 100 µg/mL [1, 7]: 12.8 ± 4.8%; inhibition at 500 µg/mL [1, 7]: 67.4 ± 5.2%; Specific activity on MAO-B relative to that on MAO-A ([2]; from Table 1): about 8 times; inhibition at 500 µg/mL [2, 8]: 108 ± 1.3%; inhibition at 500 µg/mL [3, 10]: 97.2 ± 2%; Apoptosis of neural stem cells [4]: inhibit apoptosis; Proliferation of neural stem cells [4]: increase proliferation
2 | > 12900 | 223 | 42.8 ± 2.2 | 52.2 ± 1.5 | > 12900 |  |  | COC(=O)C1=CO[C@@H](O[C@@H]2O[C@H](CO)[C@@H](O)[C@H](O)[C@H]2O)[C@@H]2C(CO)=CC[C@H]12 [Compound 2, geniposide] | inhibition at 4 µg/mL [2, 8]: 9.2 ± 1.2%; inhibition at 20 µg/mL [2, 8]: 16 ± 0.6%; Absorption percentage [5]: very low
3 | > 11000 | 780 | 17.1 ± 1.1 | 28.7 ± 8 | 214 | 33.2 ± 6.9 | 51.2 ± 5.9 | C[C@H]1[C@H](C)CC[C@]2(C(=O)O)CC[C@]3(C)C(=CC[C@@H]4[C@@]5(C)CC[C@H](O)C(C)(C)[C@@H]5CC[C@]43C)[C@H]12 [Compound 5, ursolic acid] | MAO-A inhibition (in words) [1]: no inhibition; IC50 ([3]; IC50 DBH): 215 µM; inhibition at 2 µg/mL [3, 10]: 18.2 ± 7.6%; inhibition at 10 µg/mL [3, 10]: 20.8 ± 10.7%
